# Experimental data reported in US8735590B2, “Bicyclo-heptan-2-amines” (priority 2011, dated 2014).
# How the values were obtained:
# [1] = tested on: MDCK cells; assay: MTT cell viability assay in MDCK cells; assay type: cell-based, canine; settings: 10-500 μM, FIG. 3A
# Description: (§1) We evaluated the effect of compounds 5a, 5b and 5c on cell viability in the neuronal cell line N2a and in the Madin-Darby canine kidney (MDCK) cell line, a blood-brain barrier model. Memantine, an NMDA glutamate receptor antagonist, was used as a negative control.
# (§2) Mouse Neuro-2a (CCL-131, ATCC) and MDCK (CCL-34, ATCC) were routinely propagated using Eagle's Minimum Essential Medium (EMEM, ATCC), supplemented with 10% fetal bovine serum (FBS, ATCC) and 1% penicillin/streptomycin (Gibco) in 100 cm^2 Petri-dishes (Corning) at 37° C. in 5% CO2. Compounds 5a, 5b and 5c were obtained as salts. Stock solutions (1 mM) were prepared in double distilled water. The treatment concentrations for the compounds and the memantine control were 10, 50, 100, 200, 300, and 500 μM. Cells were allowed to attach overnight prior to treatment. H2O2 served as positive control. Working concentrations were prepared immediately prior to treatment by dilution into medium.
# (§3) Cell viability was assayed using the MTT (3-(4,5-dimethylthiazole-2-yl)-2,5-diphenyltetrazoliumbromide) assay (ATCC) according to manufacturer's instructions. Cells were plated at a concentration of 13,000 to 20,000 cells/well on a 96-well round-bottom plate. MTT assay. The following determinants were optimized for each cell line: plating cell concentration; incubation time with MTT reagent, and incubation time with detergent reagent. Absorbance was recorded at 570 nm by a microtiter plate reader (VICTOR^3, PerkinElmer). This experiment was repeated on three separate occasions and results were presented as the mean absorbance±SD.
# [2] = tested on: N2a cells; assay: MTT cell viability assay in N2a cells; assay type: cell-based, Mouse; settings: 10-500 μM, FIG. 4A
# Description: as §1, §2, §3
# [3] = molecular target: T1, Sigma-1 receptor (Rattus norvegicus, UniProt Q9R0C9); assay: NIMH-PDSP receptor binding, Sigma-1 (radioligand Pentazocine(+), brain)
# T1 construct: from tissue; NIMH-PDSP)
# T1 sequence (Q9R0C9 whole entry): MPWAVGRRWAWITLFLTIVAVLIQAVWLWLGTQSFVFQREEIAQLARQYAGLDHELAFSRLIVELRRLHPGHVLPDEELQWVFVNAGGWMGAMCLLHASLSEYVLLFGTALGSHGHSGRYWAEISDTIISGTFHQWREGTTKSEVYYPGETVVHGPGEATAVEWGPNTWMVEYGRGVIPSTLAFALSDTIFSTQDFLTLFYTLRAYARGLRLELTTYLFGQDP
# Protocol: (§4) Compounds 5a, 5b and 5c were accepted into the National Institute of Mental Health Psychoactive Drug Screening Program, NIMH-PDSP, National Institutes of Health (NIH). Each compound was evaluated for affinity at human or rat receptors. Sites to be evaluated were chosen based on known or suspected sites of interaction with related compounds. The receptors evaluated, radio-labeled ligand, species and receptor source are depicted in Table 1. Experimental details and procedure can be found through Assay Protocol Book, National Institute of Mental Health Psychoactive Drug Screening Program, University of North Carolina at Chapel Hill.
# [4] = tested on: MCF-7 cells; assay: MTT cell viability assay in MCF-7 breast carcinoma cells; assay type: cell-based, human; settings: 24 hours; for effect on cell viability in MCF-7 cells: MTT assay, 10 μM to 500 μM, FIG. 6; for percent survival of untreated control cells: MTT
# Protocol: (§5) We also evaluated the effect of compounds 5a, 5b and 5c on the human glioma cell line U-138 and the human breast carcinoma cell line MCF-7. Doxorubicin, a clinically used anticancer compound, served as a positive control.
# (§6) Cell viability was assayed using the MTT assay essentially as described in Example 8. Adherent cells were trypsinized and placed into 96-well flat bottom tissue culture plates in 100 μl of supplemented Dulbecco's Modified Eagles Media (DMEM) at 10,000 cells/well for 24 hours. Cells were treated with the compounds for 24 hours at concentrations ranging from 10 μM to 500 μM. Cells were incubated with MTT reagent for 4 hours followed with MTT detergent for 24 hours. Plates were read on a computerized microplate ELISA reader at an optical density of 570 nm. The percent cytotoxicity was determined by the ratio of treated optical densities to control optical densities (OD) from one and multiplying by 100. The concentration giving 50% cytotoxicity, IC50, was determined from the dose response curves for each cell line using the GraphPad Prism software package. Each experiment was performed three separate times and the data presented are the pooled results of the three experiments.
# [5] = molecular target: T2, Sigma-2 receptor (Rattus norvegicus, UniProt Q5U3Y7); assay: NIMH-PDSP receptor binding, Sigma-2 (radioligand DTG, PC12)
# T2 construct: endogenous in cells
# T2 sequence (Q5U3Y7 1-176): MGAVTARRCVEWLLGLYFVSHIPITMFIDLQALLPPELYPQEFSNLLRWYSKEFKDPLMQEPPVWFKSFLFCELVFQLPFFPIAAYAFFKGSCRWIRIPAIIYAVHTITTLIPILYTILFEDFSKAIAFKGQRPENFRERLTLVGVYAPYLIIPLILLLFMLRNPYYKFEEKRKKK
# Protocol: as §4
# [6] = tested on: U-138 glioma cells; assay: MTT cell viability assay in U-138 glioma cells; assay type: cell-based, human; settings: 24 hours, 10 μM to 500 μM, FIG. 5
# Protocol: as §5, §6
# [7] = tested on: MES-induced seizures; assay: Maximal Electroshock Test (MES), tonic-clonic seizure model; assay type: in vivo; settings: mice
# Protocol: Compounds 5a, 5b and 5c were evaluated in for the ability to modulate seizures using the Maximal Electroshock Test (MES), a model for generalized tonic-clonic seizures that can provide an indication of a compound's ability to prevent seizure spread when all neuronal circuits in the brain are maximally active. For all tests based on MES convulsions, 60 Hz of alternating current (50 mA in mice) was delivered for […] by corneal electrodes which had been primed with an electrolyte solution containing an anesthetic agent (0.5% tetracaine HCL). Mice were tested at various intervals following doses of 30, 100 and 300 mg/kg of test compound given by i.p. injection of a volume of 0.01 mUg. An animal was considered “protected” from MES-induced seizures upon abolition of the hindlimb tonic extensor component of the seizure. Compound 5c was active at 100 and 300 mg/kg.
smiles,measurement,setting,value
"c1ccc(C2(NCCCN3CCCCC3)CC3CCC2C3)cc1 (racemic) [Compound 5a, (±)-2-Phenyl-N-(3-(piperidin-1-yl)propyl)bicyclo[2.2.1]heptan-2-amine]",effect on cell viability in MDCK cells,[1],minimal effects on cell viability
same,effect on cell viability in N2a cells,[2],dose-dependent reduction in cell viability
same,Ki,[3],> 10000 nM
same,effect on cell viability in MCF-7 cells,[4],dose-dependent reduction in cell viability
same,Ki,[5],9.6 nM
"Fc1ccc(C2(NCCCN3CCCCC3)CC3CCC2C3)cc1 (racemic) [Compound 5b, (±)-2-(4-Fluorophenyl)-N-(3-(piperidin-1-yl)propyl)bicyclo[2.2.1]heptan-2-amine]",effect on cell viability in MDCK cells,[1],minimal effects on cell viability
same,effect on cell viability in U-138 glioma cells,[6],dose-dependent effect on cell viability
same,effect on cell viability in N2a cells,[2],dose-dependent reduction in cell viability
same,Ki,[3],> 10000 nM
same,percent survival of untreated control cells,[4]; 200 μM,70%
same,percent survival of untreated control cells,[4]; 300 μM,63%
same,percent survival of untreated control cells,[4]; 500 μM,16%
same,effect on cell viability in MCF-7 cells,[4],dose-dependent reduction in cell viability
same,Ki,[5],16 nM
"Fc1ccc(C2(NCCCOC3CCCCO3)CC3CCC2C3)cc1 (racemic) [Compound 5c, 2-(4-Fluorophenyl)-N-(3-(tetrahydro-2H-pyran-2-yloxy)propyl)bicyclo[2.2.1]heptan-2-amine]",effect on cell viability in MDCK cells,[1],minimal effects on cell viability
same,effect on cell viability in N2a cells,[2],dose-dependent reduction in cell viability
same,Ki,[3],> 10000 nM
same,effect on cell viability in MCF-7 cells,[4],dose-dependent reduction in cell viability
same,Ki,[5],5.5 nM
same,activity in MES test (protection from MES-induced seizures),[7]; 100 mg/kg i.p.,active
same,activity in MES test (protection from MES-induced seizures),[7]; 300 mg/kg i.p.,active
